This is an account of results in PMC1448180, “Small-molecule and mutational analysis of allosteric Eg5 inhibition by monastrol” (BMC Chemical Biology, 2006).

One test deals with T1, Klp61F-364H (Drosophila melanogaster, UniProt P46863).
T1 construct: His6 (C); made in house; host or cells: vector pRSETa
T1 sequence (P46863 1-364): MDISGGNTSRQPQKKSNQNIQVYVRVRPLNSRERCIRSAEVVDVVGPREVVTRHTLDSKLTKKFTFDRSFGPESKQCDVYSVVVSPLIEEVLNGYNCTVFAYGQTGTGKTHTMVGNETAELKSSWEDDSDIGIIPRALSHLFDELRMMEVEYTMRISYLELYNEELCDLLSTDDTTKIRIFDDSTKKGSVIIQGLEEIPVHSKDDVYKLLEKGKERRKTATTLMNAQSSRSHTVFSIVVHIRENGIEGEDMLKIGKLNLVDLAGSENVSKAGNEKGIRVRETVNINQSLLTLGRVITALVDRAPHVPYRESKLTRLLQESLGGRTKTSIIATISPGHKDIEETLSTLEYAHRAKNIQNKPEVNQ
In words: ATP hydrolysis by Klp-61F motor domain (NADH-enzyme coupled assay). The format is biochemical, D. melanogaster. On the procedure: Each data point is the average of three independent experiments.
(§1) ATP hydrolysis by recombinantly expressed kinesin motor domains was measured using an NADH-enzyme coupled assay. ATP hydrolysis was measured in KC25 buffer supplemented with 5 μM taxol, 1 mM ATP-KOH (pH 7.0), the appropriate concentration of motor domain, and the appropriate concentrations of taxol-polymerized microtubules.

A further test deals with T2, hEg5-367H (Homo sapiens, UniProt P52732).
T2 construct: motor domain (amino acid residues 1–367) of human Eg5; His6 (C); made in house
T2 sequence (P52732 1-367): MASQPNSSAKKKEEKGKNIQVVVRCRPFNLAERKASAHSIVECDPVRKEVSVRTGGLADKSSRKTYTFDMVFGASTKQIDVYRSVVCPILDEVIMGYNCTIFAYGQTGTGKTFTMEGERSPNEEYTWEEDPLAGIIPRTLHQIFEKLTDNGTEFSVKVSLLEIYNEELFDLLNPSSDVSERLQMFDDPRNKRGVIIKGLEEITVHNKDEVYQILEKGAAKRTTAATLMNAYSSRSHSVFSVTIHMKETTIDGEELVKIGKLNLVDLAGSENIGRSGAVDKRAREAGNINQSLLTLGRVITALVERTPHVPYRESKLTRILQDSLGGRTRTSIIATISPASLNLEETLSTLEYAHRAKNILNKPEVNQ
Description: ATP hydrolysis by recombinant human Eg5 motor domain (NADH-enzyme coupled assay). The format is biochemical. Conditions: for Activity as Eg5 inhibitor, in words: authors' assays. On the procedure:
(§2) Figure 2 Structure-activity relationship of monastrol derivatives. (A) Scheme depicting the Biginelli condensation, a one-pot reaction for preparing monastrol derivatives. […] Each data point is the average of three independent experiments. […] Each cell-based assay was performed in duplicate.
We used a modified PCR mutagenesis protocol to introduce mutations into hEg5-367H, a plasmid encoding the C-terminally His6-tagged motor domain (amino acid residues 1–367) of human Eg5. The wild-type and mutant proteins were expressed and purified using Ni-NTA affinity chromatography and concentrated to between 3 and 10 mg/ml protein as described.
as §1

The next test concerns BS-C-1 cells. Description: Monoaster formation in tissue culture cells (manual count of mitotic cells). Conditions: Chlorocebus sabaeus, read-out: Cells: monoaster formation score (drug concentration with roughly equal monastral and bipolar spindles). In kind it is cell-based, green monkey. The procedure: as §2
Conditions for growing the following cell lines are as described: D. rerio AB9 (37), D. melanogaster KC167 [38], and BS-C-1 green monkey kidney cells. For immunofluorescence microscopy, cells were grown on 12 mm circular coverslips to 30 % confluence, treated medium supplemented with drug and 0.2% DMSO, or a DMSO alone, for 6 hours, fixed with formaldehyde, and stained for DNA and microtubules, as described. D. melanogaster KC167 cells were cultured in Schneider's Drosophila Medium (GIBCO) whereas D. rerio AB9 cells and BS-C-1 green monkey kidney cells were cultured at 37°C in Dulbecco's Minimal medium in the presence of 10 % heat inactivated fetal calf serum.

The target of the next test is T3, hEg5-367H (L214T) (Homo sapiens, UniProt P52732, L214T).
T3 construct: motor domain (amino acid residues 1–367) of human Eg5; His6 (C); made in house
T3 sequence (P52732 1-367 L214T): T2 sequence (P52732 1-367) with L214T
Description: ATP hydrolysis by Eg5 motor domain mutant L214T. The format is biochemical. The following applies: data not shown.
From the text: Figure 4 Mutagenesis of the monastrol binding site in human Eg5. (A) Design of mutations in the human Eg5 motor domain. Amino acid side chains that are not conserved between Eg5 and conventional kinesin were targeted, either introducing chimeric or rationally designed mutations (asterix for targeted point mutants) to test the contribution of residues to the drug-sensitivity of Eg5. (B) Steady-state enzymatic parameters for engineered human Eg5 motor domain mutants. Steady-state ATP hydrolysis by Eg5 was measured using an NADH-enzyme coupled assay varying the concentration of ATP, microtubules, or monastrol to obtain the microtubule concentration for half-maximal stimulation (K0.5MT), the maximal rate of microtubule-stimulated ATP hydrolysis (kcat), and the concentration of monastrol that inhibits basal ATP hydrolysis by 50 % (IC50), as described.
We used a modified PCR mutagenesis protocol to introduce mutations into hEg5-367H, a plasmid encoding the C-terminally His6-tagged motor domain (amino acid residues 1–367) of human Eg5. […]
as §1

The test system of the next test is Eg5. Conditions: cited from earlier work.
Setting [1] is: BSC-1, BS-C-1 cells, 6 hours treatment, duplicate.
Setting [2] is: 500 nM hEg5-367H, KC25 buffer, 1 mM ATP-KOH (pH 7.0), 1 μM taxol-stabilized microtubules.
[3] abbreviates: 500 nM hEg5-367H, KC25 buffer, 1 mM ATP-KOH (pH 7.0), 1 μM taxol-stabilized microtubules, read-out: IC50 (μM), inhibition of ATP hydrolysis by Eg5 motor domain.

Substitutions are numbered along the chain they refer to. Where two headings read alike, the source gives them in different places.

For `CCOC(=O)C1=C(C)NC(=S)N[C@H]1c1cccc(O)c1` [(S)-monastrol, reference compound], the concentration for half-maximal inhibition (IC50) on Klp61F-364H is 230 ± 4 µM; at hEg5-367H it was 6.1 ± 0.7 µM.

Turning to `CCOC(=O)C1=C(C)N(C)C(=S)NC1c1cccc(O)c1` (centres unmarked) [Derivative 1, ethyl 6-methyl-4-(3-hydroxyphenyl)-2-thioxo-1-methyl-1,2,3,4-tetrahydropyrimidine-5-carboxylate], the EC50 in the test on BS-C-1 cells (BSC-1, 6 h) was less than 50 µM. Also, on hEg5-367H, the IC50 is 3.3 µM.

With `CCOC(=O)C1=C(C)NC(=O)NC1c1cccc(O)c1` (centres unmarked) [Derivative 2, ethyl 6-methyl-4-(3-hydroxyphenyl)-2-oxo-1,2,3,4-tetrahydropyrimidine-5-carboxylate], the EC50 with BS-C-1 cells (setting [1]) is greater than 200 µM. For the same compound, the “Drug sensitivity of L214T mutant, in words” value on hEg5-367H (L214T) is “resistant”. Besides, the “IC50 (μM), inhibition of ATP hydrolysis by Eg5 motor domain” value (“IC50 (μM), inhibition of ATP hydrolysis” for short) on hEg5-367H (setting [2]) is listed as “Not Inhib”. Besides, the “Activity as Eg5 inhibitor, in words” value on hEg5-367H is “completely inactive”.

Regarding `CCOC(=O)C1=C(C)NC(=S)NC1c1ccccc1` (centres unmarked) [Derivative 4a, ethyl 6-methyl-4-phenyl-2-thioxo-1,2,3,4-tetrahydropyrimidine-5-carboxylate], the EC50 in the test on BS-C-1 cells (setting [1]) was greater than 200 µM. The IC50 on hEg5-367H (setting [3]) was greater than 200 µM.

For the compound `CCOC(=O)C1=C(C)NC(=S)NC1c1ccc(O)cc1` (centres unmarked) [Derivative 4b], in the test on BS-C-1 cells (BSC-1, 6 h), the EC50 was greater than 200 µM. Further, the “IC50 (μM), inhibition of ATP hydrolysis” value at hEg5-367H (setting [2]) is “Not Inhib”.

As to `CCOC(=O)C1=C(C)NC(=S)NC1c1cccc(F)c1` (centres unmarked) [Derivative 4c, ethyl 6-methyl-4-(3-fluorophenyl)-2-thioxo-1,2,3,4-tetrahydropyrimidine-5-carboxylate], the EC50 in the test with BS-C-1 cells (BSC-1, 6 h) is greater than 200 µM. At hEg5-367H (setting [2]), the “IC50 (μM), inhibition of ATP hydrolysis” value was “Not Inhib”.

As to `CCOC(=O)C1=C(C)NC(=S)NC1c1cccc(OC)c1` (centres unmarked) [Derivative 4d, ethyl 6-methyl-4-(3-methoxyphenyl)-2-thioxo-1,2,3,4-tetrahydropyrimidine-5-carboxylate], the EC50 in the test with BS-C-1 cells (BSC-1, 6 h) was greater than 200 µM. The “IC50 (μM), inhibition of ATP hydrolysis” value at hEg5-367H (setting [2]) was “Not Inhib”.

For the compound `CCOC(=O)C1=C(C)NC(=S)NC1c1cccc(Br)c1` (centres unmarked) [Derivative 4e, ethyl 6-methyl-4-(3-bromophenyl)-2-thioxo-1,2,3,4-tetrahydropyrimidine-5-carboxylate], the “Activity as Eg5 inhibitor, in words” value on hEg5-367H was “completely inactive”.

For `CC(=O)C1=C(C)NC(=S)NC1c1cccc(O)c1` (centres unmarked) [Derivative 5a, methyl 6-methyl-4-(3-hydroxyphenyl)-2-thioxo-1,2,3,4-tetrahydropyrimidine-5-ketone], the EC50 with BS-C-1 cells (BSC-1, 6 h) is 50 to 200 µM. Also, the IC50 on hEg5-367H was found to be 25 µM.

`CC1=C(C(=O)OCC(C)C)C(c2cccc(O)c2)NC(=S)N1` (centres unmarked) [Derivative 5b, isobutyl 6-methyl-4-(3-hydroxyphenyl)-2-thioxo-1,2,3,4-tetrahydropyrimidine-5-carboxylate]: in the test with BS-C-1 cells (setting [1]), the EC50 was less than 50 µM. In addition, the IC50 on hEg5-367H (setting [3]) was determined as 3.8 µM.

For `CC1=C(C(=O)OCc2ccccc2)C(c2cccc(O)c2)NC(=S)N1` (centres unmarked) [Derivative 5c, benzyl 6-methyl-4-(3-hydroxyphenyl)-2-thioxo-1,2,3,4-tetrahydropyrimidine-5-carboxylate], the EC50 in the test on BS-C-1 cells (BSC-1, 6 h) was 50 to 200 µM. Further, on hEg5-367H, the IC50 stood at 21 µM.

For the compound `CCOC(=O)C1=C(C(C)C)NC(=S)NC1c1cccc(O)c1` (centres unmarked) [Derivative 6, ethyl 6-isopropyl-4-(3-hydroxyphenyl)-2-thioxo-1,2,3,4-tetrahydropyrimidine-5-carboxylate], in the test on BS-C-1 cells (BSC-1, 6 h), the EC50 is greater than 200 µM. Besides, the “IC50 (μM), inhibition of ATP hydrolysis” value at hEg5-367H (setting [2]) was “Not Inhib”.

As for `N[C@@H](CSC(c1ccccc1)(c1ccccc1)c1ccccc1)C(=O)O` [S-trityl cysteine], in the test with Eg5, the “Potency relative to monastrol” value was “more potent than monastrol”.

Broadly, the IC50 is the concentration that gives 50% inhibition.
